“And” between values parts separate entries of the source, which are not always exact repeats. Equal values may be shown once. Numbers after ± are expanded uncertainties.
Conditions: Gas, Buoyancy - hydrostatic balance with magnetic suspension - two sinkers

CC(F)(F)F [1,1,1-trifluoroethane]
Conditions | mass density
283.15 K, 203.6 kPa | 7.588 ± 0.011 kg/m3 and 7.589 ± 0.011 kg/m3
283.15 K, 399.9 kPa | 15.605 ± 0.014 kg/m3
283.15 K, 505.8 kPa | 20.278 ± 0.019 kg/m3 and 20.282 ± 0.019 kg/m3
283.15 K, 605 kPa | 24.935 ± 0.023 kg/m3 and 24.932 ± 0.023 kg/m3
283.15 K, 651.6 kPa | 27.227 ± 0.026 kg/m3
283.15 K, 651.7 kPa | 27.238 ± 0.026 kg/m3
283.15 K, 700.8 kPa | 29.729 ± 0.028 kg/m3 and 29.728 ± 0.028 kg/m3
283.15 K, 750.8 kPa | 32.363 ± 0.031 kg/m3 and 32.361 ± 0.031 kg/m3
283.15 K, 781.5 kPa | 34.03 ± 0.033 kg/m3
283.15 K, 781.6 kPa | 34.039 ± 0.033 kg/m3
283.15 K, 801.7 kPa | 35.15 ± 0.034 kg/m3
283.15 K, 801.8 kPa | 35.164 ± 0.034 kg/m3
283.15 K, 820.2 kPa | 36.196 ± 0.035 kg/m3
283.15 K, 820.3 kPa | 36.205 ± 0.035 kg/m3
293.15 K, 201.7 kPa | 7.219 ± 0.011 kg/m3
293.15 K, 201.8 kPa | 7.222 ± 0.011 kg/m3
293.15 K, 400.3 kPa | 14.916 ± 0.014 kg/m3 and 14.915 ± 0.014 kg/m3
293.15 K, 599.3 kPa | 23.356 ± 0.021 kg/m3 and 23.36 ± 0.021 kg/m3
293.15 K, 701.3 kPa | 28.031 ± 0.026 kg/m3 and 28.028 ± 0.026 kg/m3
293.15 K, 798.2 kPa | 32.729 ± 0.031 kg/m3 and 32.732 ± 0.031 kg/m3
293.15 K, 898.7 kPa | 37.925 ± 0.035 kg/m3 and 37.921 ± 0.035 kg/m3
293.15 K, 951 kPa | 40.774 ± 0.041 kg/m3
293.15 K, 999.6 kPa | 43.532 ± 0.044 kg/m3
293.15 K, 1030.9 kPa | 45.365 ± 0.046 kg/m3 and 45.355 ± 0.046 kg/m3
293.15 K, 1048.7 kPa | 46.429 ± 0.048 kg/m3
293.15 K, 1048.8 kPa | 46.429 ± 0.048 kg/m3
293.15 K, 1071 kPa | 47.788 ± 0.05 kg/m3
293.15 K, 1071.1 kPa | 47.784 ± 0.05 kg/m3
293.15 K, 1089 kPa | 48.896 ± 0.051 kg/m3 and 48.901 ± 0.051 kg/m3
303.15 K, 200 kPa | 6.895 ± 0.011 kg/m3 and 6.903 ± 0.011 kg/m3
303.15 K, 400.9 kPa | 14.305 ± 0.014 kg/m3 and 14.313 ± 0.014 kg/m3
303.15 K, 600.3 kPa | 22.265 ± 0.02 kg/m3
303.15 K, 600.4 kPa | 22.265 ± 0.02 kg/m3
303.15 K, 801.6 kPa | 31.034 ± 0.029 kg/m3 and 31.031 ± 0.029 kg/m3
303.15 K, 1001 kPa | 40.662 ± 0.039 kg/m3 and 40.666 ± 0.039 kg/m3
303.15 K, 1099.9 kPa | 45.879 ± 0.047 kg/m3 and 45.88 ± 0.047 kg/m3
303.15 K, 1197.3 kPa | 51.364 ± 0.053 kg/m3 and 51.363 ± 0.053 kg/m3
303.15 K, 1249.2 kPa | 54.458 ± 0.057 kg/m3
303.15 K, 1299.5 kPa | 57.578 ± 0.061 kg/m3 and 57.581 ± 0.061 kg/m3
303.15 K, 1340.6 kPa | 60.231 ± 0.067 kg/m3 and 60.229 ± 0.067 kg/m3
303.15 K, 1369.8 kPa | 62.181 ± 0.071 kg/m3 and 62.183 ± 0.071 kg/m3
303.15 K, 1401.5 kPa | 64.363 ± 0.073 kg/m3 and 64.364 ± 0.073 kg/m3
303.15 K, 1423.7 kPa | 65.925 ± 0.075 kg/m3
303.15 K, 1423.9 kPa | 65.952 ± 0.076 kg/m3
313.15 K, 201.5 kPa | 6.696 ± 0.011 kg/m3
313.15 K, 201.8 kPa | 6.718 ± 0.011 kg/m3
313.15 K, 205.1 kPa | 6.831 ± 0.011 kg/m3 and 6.828 ± 0.011 kg/m3
313.15 K, 206.2 kPa | 6.869 ± 0.011 kg/m3
313.15 K, 401.6 kPa | 13.776 ± 0.013 kg/m3
313.15 K, 401.7 kPa | 13.775 ± 0.013 kg/m3
313.15 K, 600.3 kPa | 21.275 ± 0.019 kg/m3 and 21.282 ± 0.019 kg/m3
313.15 K, 800.3 kPa | 29.41 ± 0.027 kg/m3 and 29.413 ± 0.027 kg/m3
313.15 K, 999.1 kPa | 38.197 ± 0.036 kg/m3 and 38.204 ± 0.036 kg/m3
313.15 K, 1200.3 kPa | 47.988 ± 0.048 kg/m3 and 48.002 ± 0.048 kg/m3
313.15 K, 1400.2 kPa | 58.893 ± 0.063 kg/m3 and 58.909 ± 0.063 kg/m3
313.15 K, 1500.8 kPa | 64.963 ± 0.072 kg/m3 and 64.977 ± 0.072 kg/m3
313.15 K, 1540.9 kPa | 67.443 ± 0.078 kg/m3 and 67.442 ± 0.078 kg/m3
313.15 K, 1598 kPa | 71.29 ± 0.083 kg/m3
313.15 K, 1598.1 kPa | 71.312 ± 0.083 kg/m3
313.15 K, 1648.3 kPa | 74.652 ± 0.088 kg/m3 and 74.647 ± 0.088 kg/m3
313.15 K, 1701.3 kPa | 78.498 ± 0.097 kg/m3 and 78.51 ± 0.097 kg/m3
313.15 K, 1740.8 kPa | 81.517 ± 0.1 kg/m3 and 81.508 ± 0.1 kg/m3
313.15 K, 1771.1 kPa | 83.916 ± 0.11 kg/m3 and 83.908 ± 0.11 kg/m3
313.15 K, 1793.2 kPa | 85.73 ± 0.12 kg/m3
313.15 K, 1794.4 kPa | 85.811 ± 0.11 kg/m3

FCF [difluoromethane]
Conditions | mass density
313.15 K, 201.8 kPa | 4.12 ± 0.011 kg/m3
313.15 K, 201.9 kPa | 4.121 ± 0.011 kg/m3
313.15 K, 490.8 kPa | 10.336 ± 0.012 kg/m3 and 10.342 ± 0.012 kg/m3
313.15 K, 791 kPa | 17.275 ± 0.015 kg/m3 and 17.277 ± 0.015 kg/m3
313.15 K, 996.6 kPa | 22.349 ± 0.021 kg/m3 and 22.355 ± 0.021 kg/m3
313.15 K, 1203.3 kPa | 27.759 ± 0.024 kg/m3 and 27.77 ± 0.024 kg/m3
313.15 K, 1396.5 kPa | 33.148 ± 0.033 kg/m3 and 33.159 ± 0.033 kg/m3
313.15 K, 1602.9 kPa | 39.322 ± 0.035 kg/m3 and 39.331 ± 0.035 kg/m3
313.15 K, 1801.8 kPa | 45.76 ± 0.041 kg/m3
313.15 K, 1801.9 kPa | 45.748 ± 0.041 kg/m3
313.15 K, 1998.1 kPa | 52.687 ± 0.047 kg/m3 and 52.676 ± 0.047 kg/m3
313.15 K, 2103.6 kPa | 56.702 ± 0.051 kg/m3 and 56.692 ± 0.051 kg/m3
313.15 K, 2201.5 kPa | 60.637 ± 0.072 kg/m3 and 60.629 ± 0.072 kg/m3
313.15 K, 2251 kPa | 62.72 ± 0.056 kg/m3 and 62.711 ± 0.056 kg/m3
313.15 K, 2298.1 kPa | 64.762 ± 0.058 kg/m3 and 64.748 ± 0.058 kg/m3
313.15 K, 2355.7 kPa | 67.348 ± 0.061 kg/m3
313.15 K, 2355.8 kPa | 67.343 ± 0.061 kg/m3
313.15 K, 2402.7 kPa | 69.541 ± 0.09 kg/m3
313.15 K, 2403 kPa | 69.545 ± 0.09 kg/m3
313.15 K, 2435 kPa | 71.084 ± 0.064 kg/m3
313.15 K, 2435.1 kPa | 71.095 ± 0.064 kg/m3
313.15 K, 2450.5 kPa | 71.838 ± 0.065 kg/m3
313.15 K, 2450.6 kPa | 71.855 ± 0.065 kg/m3
313.15 K, 2472 kPa | 72.903 ± 0.066 kg/m3 and 72.918 ± 0.066 kg/m3
323.15 K, 207.9 kPa | 4.101 ± 0.011 kg/m3 and 4.103 ± 0.011 kg/m3
323.15 K, 499.2 kPa | 10.125 ± 0.012 kg/m3 and 10.143 ± 0.012 kg/m3 and 10.132 ± 0.012 kg/m3
323.15 K, 801.1 kPa | 16.793 ± 0.015 kg/m3
323.15 K, 801.2 kPa | 16.794 ± 0.015 kg/m3
323.15 K, 998.3 kPa | 21.387 ± 0.019 kg/m3 and 21.393 ± 0.019 kg/m3
323.15 K, 1095.2 kPa | 23.732 ± 0.024 kg/m3
323.15 K, 1200.3 kPa | 26.337 ± 0.028 kg/m3
323.15 K, 1200.4 kPa | 26.341 ± 0.028 kg/m3
323.15 K, 1397.4 kPa | 31.424 ± 0.03 kg/m3 and 31.416 ± 0.03 kg/m3
323.15 K, 1590.6 kPa | 36.664 ± 0.046 kg/m3 and 36.67 ± 0.046 kg/m3
323.15 K, 1797.2 kPa | 42.644 ± 0.061 kg/m3 and 42.658 ± 0.061 kg/m3
323.15 K, 2004.9 kPa | 49.091 ± 0.079 kg/m3 and 49.105 ± 0.079 kg/m3
323.15 K, 2200.6 kPa | 55.637 ± 0.064 kg/m3 and 55.653 ± 0.064 kg/m3
323.15 K, 2402.3 kPa | 62.99 ± 0.077 kg/m3 and 62.978 ± 0.077 kg/m3
323.15 K, 2596.1 kPa | 70.738 ± 0.17 kg/m3 and 70.733 ± 0.17 kg/m3
323.15 K, 2699 kPa | 75.19 ± 0.21 kg/m3
323.15 K, 2699.1 kPa | 75.207 ± 0.21 kg/m3
323.15 K, 2799 kPa | 79.805 ± 0.29 kg/m3 and 79.816 ± 0.26 kg/m3
323.15 K, 2802.9 kPa | 80.005 ± 0.29 kg/m3 and 80.017 ± 0.33 kg/m3
323.15 K, 2900.6 kPa | 84.82 ± 0.28 kg/m3 and 84.839 ± 0.28 kg/m3
323.15 K, 2901.2 kPa | 84.882 ± 0.28 kg/m3 and 84.872 ± 0.28 kg/m3
323.15 K, 2947 kPa | 87.258 ± 0.31 kg/m3 and 87.244 ± 0.31 kg/m3
323.15 K, 2960.3 kPa | 87.971 ± 0.33 kg/m3 and 87.99 ± 0.33 kg/m3
323.15 K, 3002.2 kPa | 90.24 ± 0.41 kg/m3
323.15 K, 3002.3 kPa | 90.261 ± 0.38 kg/m3
323.15 K, 3010.2 kPa | 90.716 ± 0.38 kg/m3 and 90.73 ± 0.38 kg/m3
323.15 K, 3041.1 kPa | 92.478 ± 0.39 kg/m3
323.15 K, 3041.2 kPa | 92.495 ± 0.39 kg/m3
323.15 K, 3074.6 kPa | 94.445 ± 0.4 kg/m3 and 94.453 ± 0.4 kg/m3
323.15 K, 3099.5 kPa | 95.942 ± 0.43 kg/m3 and 95.952 ± 0.43 kg/m3
323.15 K, 3125.5 kPa | 97.558 ± 0.44 kg/m3
323.15 K, 3125.6 kPa | 97.549 ± 0.44 kg/m3
323.15 K, 3134.2 kPa | 98.084 ± 0.42 kg/m3

Source: the NIST ThermoML archive (doi:10.1021/je700236c)
